From paper PMC9181887, “In Vitro Antithrombotic, Hematological Toxicity, and Inhibitor Studies of Protocatechuic, Isovanillic, and p-Hydroxybenzoic Acids from Maclura tricuspidata (Carr.) Bur” (Molecules, 2022)

System: human platelet-poor plasma
Experiment: Recalcification time assay
Assay type: biochemical
Protocol: Figure 5 Effect of PA (A), IVA (B), and 4-HA (C) on recalcification time and plasma density. Human platelet-poor plasma was mixed with PA, IVA, and 4-HA dissolved in DMSO in 96-well plates and incubated for 10 min at 37 °C. Thereafter, 100 mM pre-warmed CaCl2 was added to the mixture and absorbance was taken every 60 s at 650 nm for 30 min in a microplate reader. The plasma density was presented as the optical density at 650 nm after 30 min. The half time (s) was presented as reaching a half-maximum absorbance value. NC1, plasma only; NC2, plasma treated with CaCl2; PC, positive control group (1 U heparin); PA1–20, 1–20 μg of PA treated; IVA1–20, 1–20 μg of IVA treated; 4-HA1–20, 1–20 μg of 4-HA treated.
Recalcification time was measured in a 96-well plate, according to a previously described method, with slight modifications. First, 50 μL of human platelet-poor plasma was mixed with 50 μL of the compounds, vehicle as NC2, or 1 U heparin as PC, and incubated at 37 °C for 10 min. Thereafter, 100 mM pre-warmed CaCl2 was added to the mixture and absorbance was measured at 650 nm every 1 min for 30 min using a microplate reader. The plasma density was presented as the absorbance at 650 nm after 30 min. The half time was presented as reaching a half-maximum absorbance value.

Substance: heparin [reference compound]
- plasma coagulation for 1800 s (1U): completely delayed
- Absorbance after Reaction (1 U heparin, 650 nm after 30 min, NC2 0.2094 ± 0.0305): 0.0184 ± 0.0016
